Measured values from PubChem BioAssay (NCI).
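48-hour exposure; five concentrations; linearly interpolated endpoints. TGI is the concentration that stops growth completely.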

Assays:
Experiment in all cases: NCI anticancer screen, dose series, 48 h
[1] = system: HOP-62 NSCLC
[2] = system: OVCAR-4 ovarian
[3] = system: NCI-H23 lung
[4] = system: HCT-116 colon
[5] = system: UACC-257 melanoma
[6] = system: SK-MEL-2 melanoma
[7] = system: DU-145 prostate
[8] = system: UO-31 renal
[9] = system: RPMI-8226 leukemia
[10] = system: MDA-N
[11] = system: OVCAR-8 ovarian
[12] = system: HT29 colon
[13] = system: SR leukemia
[14] = system: CCRF-CEM leukemia
[15] = system: OVCAR-3 ovarian
[16] = system: HCT-15 colon
[17] = system: OVCAR-5 ovarian
[18] = system: T-47D breast
[19] = system: MOLT-4 leukemia
[20] = system: IGROV1 ovarian
[21] = system: SK-MEL-28 melanoma
[22] = system: HCC-2998 colon
[23] = system: A549 NSCLC
[24] = system: RXF 393 renal
[25] = system: BT-549 breast
[26] = system: COLO 205 colon
[27] = system: MDA-MB-231 breast
[28] = system: NCI/ADR-RES ovarian
[29] = system: NCI-H522 lung
[30] = system: EKVX NSCLC
[31] = system: HL-60(TB) leukemia
[32] = system: UACC-62 melanoma
[33] = system: SNB-75 CNS
[34] = system: NCI-H460 lung
[35] = system: SK-MEL-5 melanoma
[36] = system: SF-539 CNS
[37] = system: LOX IMVI melanoma
[38] = system: U251 CNS
[39] = system: ACHN renal
[40] = system: SF-268 CNS
[41] = system: CAKI-1 renal
[42] = system: MDA-MB-435
[43] = system: SF-295 CNS
[44] = system: HOP-92 NSCLC
[45] = system: HS 578T breast
[46] = system: NCI-H226 lung
[47] = system: MALME-3M melanoma
[48] = system: MCF7 breast
[49] = system: KM12 colon
[50] = system: M14 melanoma
[51] = system: SN12C renal
[52] = system: PC-3 prostate
[53] = system: SK-OV-3 ovarian
[54] = system: SNB-19 CNS
[55] = system: 786-0 renal
[56] = system: SW-620 colon
[57] = system: K-562 leukemia
[58] = system: TK-10 renal
[59] = system: A498 renal
[60] = system: M19-MEL melanoma
[61] = system: LXFL 529 NSCLC
[62] = system: DLD-1 colon
[63] = system: HOP-18 NSCLC
[64] = system: DMS 273 small cell lung
[65] = system: DMS 114 small cell lung

O=C1c2sccc2C(=O)c2c(CO)csc21
TGI [1]: 25.5 µM | TGI [2]: 9.46 µM | TGI [3]: 5.95 µM | TGI [4]: 9.47 µM | TGI [5]: 5.24 µM | TGI [6]: 8.63 µM | TGI [7]: 9.37 µM | TGI [8]: 26.2 µM | TGI [9]: > 100 µM | TGI [10]: 3.16 µM | TGI [11]: 12.4 µM | TGI [12]: 9.55 µM | TGI [13]: > 73.2 µM | TGI [14]: > 51.6 µM | TGI [15]: 6.3 µM | TGI [16]: 11.2 µM | TGI [17]: > 53 µM | TGI [18]: 17.5 µM | TGI [19]: > 52.9 µM | TGI [20]: 17.7 µM | TGI [21]: 38.3 µM | TGI [22]: 13.7 µM | TGI [23]: 6.7 µM | TGI [24]: 3.22 µM | TGI [25]: 12 µM | TGI [26]: 12.2 µM | TGI [27]: 50.1 µM | TGI [28]: 19.1 µM | TGI [29]: 13.6 µM | TGI [30]: 26.6 µM | TGI [31]: 6.08 µM | TGI [32]: 5.67 µM | TGI [33]: 15.1 µM | TGI [34]: 6.96 µM | TGI [35]: 2200 nM | TGI [36]: 14.8 µM | TGI [37]: 10.6 µM | TGI [38]: 23.2 µM | TGI [39]: 12.2 µM | TGI [40]: 30.7 µM | TGI [41]: 48.2 µM | TGI [42]: 4.62 µM | TGI [43]: 8.04 µM | TGI [44]: 26.1 µM | TGI [45]: 33.7 µM | TGI [46]: 15 µM | TGI [47]: 6.71 µM | TGI [48]: 18.9 µM | TGI [49]: 31.5 µM | TGI [50]: 7.55 µM | TGI [51]: 22.4 µM | TGI [52]: > 32.8 µM | TGI [53]: 28.2 µM | TGI [54]: 20.8 µM | TGI [55]: 18.5 µM | TGI [56]: > 86.5 µM | TGI [57]: > 100 µM | TGI [58]: 23 µM | TGI [59]: 31.8 µM

CC1SCCc2nc3ccccc3n21 (stereo unspecified)
TGI [1]: > 100 µM | TGI [2]: > 100 µM | TGI [3]: > 100 µM | TGI [4]: > 100 µM | TGI [5]: > 100 µM | TGI [6]: > 100 µM | TGI [7]: > 100 µM | TGI [8]: > 100 µM | TGI [9]: > 100 µM | TGI [10]: > 100 µM | TGI [11]: > 100 µM | TGI [12]: > 100 µM | TGI [13]: > 100 µM | TGI [14]: > 100 µM | TGI [15]: > 100 µM | TGI [16]: > 100 µM | TGI [17]: > 100 µM | TGI [18]: > 100 µM | TGI [19]: > 100 µM | TGI [20]: > 100 µM | TGI [21]: > 100 µM | TGI [22]: > 100 µM | TGI [23]: > 100 µM | TGI [24]: > 100 µM | TGI [25]: > 100 µM | TGI [26]: > 100 µM | TGI [27]: > 100 µM | TGI [28]: > 100 µM | TGI [30]: > 100 µM | TGI [31]: > 100 µM | TGI [32]: > 100 µM | TGI [33]: > 100 µM | TGI [34]: > 100 µM | TGI [35]: > 100000 nM | TGI [36]: > 100 µM | TGI [37]: > 100 µM | TGI [38]: > 100 µM | TGI [40]: > 100 µM | TGI [41]: > 100 µM | TGI [42]: > 100 µM | TGI [43]: > 100 µM | TGI [44]: > 100 µM | TGI [45]: > 100 µM | TGI [46]: > 100 µM | TGI [48]: > 100 µM | TGI [49]: > 100 µM | TGI [50]: > 100 µM | TGI [51]: > 100 µM | TGI [52]: > 100 µM | TGI [53]: > 100 µM | TGI [54]: > 100 µM | TGI [55]: > 100 µM | TGI [56]: > 100 µM | TGI [57]: > 100 µM | TGI [58]: > 100 µM | TGI [59]: > 100 µM

CC(=O)OCC1OC(OC(C)=O)C(NC#N)C(OC(C)=O)C1OC(C)=O (stereo unspecified)
TGI [1]: > 100 µM | TGI [2]: > 100 µM | TGI [3]: > 100 µM | TGI [4]: > 100 µM | TGI [6]: > 100 µM | TGI [60]: > 100 µM | TGI [8]: > 100 µM | TGI [9]: > 100 µM | TGI [11]: > 100 µM | TGI [12]: > 100 µM | TGI [13]: > 100 µM | TGI [14]: > 100 µM | TGI [15]: > 100 µM | TGI [16]: > 100 µM | TGI [17]: > 100 µM | TGI [61]: > 100 µM | TGI [19]: > 100 µM | TGI [20]: > 100 µM | TGI [21]: > 100 µM | TGI [22]: > 100 µM | TGI [23]: > 100 µM | TGI [24]: > 100 µM | TGI [26]: > 100 µM | TGI [62]: > 100 µM | TGI [29]: > 100 µM | TGI [31]: > 100 µM | TGI [32]: > 100 µM | TGI [33]: > 100 µM | TGI [34]: > 100 µM | TGI [35]: > 100000 nM | TGI [36]: > 100 µM | TGI [37]: > 100 µM | TGI [38]: > 100 µM | TGI [39]: > 100 µM | TGI [40]: > 100 µM | TGI [41]: > 100 µM | TGI [63]: > 100 µM | TGI [43]: > 100 µM | TGI [44]: > 100 µM | TGI [47]: > 100 µM | TGI [49]: > 100 µM | TGI [64]: > 100 µM | TGI [50]: > 100 µM | TGI [51]: > 100 µM | TGI [53]: > 100 µM | TGI [54]: > 100 µM | TGI [55]: > 100 µM | TGI [56]: > 100 µM | TGI [57]: > 100 µM | TGI [58]: > 100 µM | TGI [65]: > 100 µM | TGI [59]: > 100 µM

Cc1c(Cl)cc(C(C)(C)C)c(O)c1Cc1c(C)c(Cl)cc(C(C)(C)C)c1O
TGI [1]: 9.87 µM | TGI [2]: 10.3 µM | TGI [3]: 5.13 µM | TGI [4]: 3.47 µM | TGI [5]: 6.29 µM | TGI [6]: 3.9 µM | TGI [7]: 11.8 µM | TGI [8]: 4.46 µM | TGI [9]: 0.707 µM | TGI [10]: 8.71 µM | TGI [11]: 5.51 µM | TGI [12]: 6.36 µM | TGI [13]: 5.58 µM | TGI [14]: 1.54 µM | TGI [15]: 2.22 µM | TGI [16]: 13.6 µM | TGI [17]: 14 µM | TGI [18]: 13.1 µM | TGI [19]: 3.34 µM | TGI [20]: 5.53 µM | TGI [21]: 12.3 µM | TGI [22]: 3.33 µM | TGI [23]: 5.88 µM | TGI [24]: 2.44 µM | TGI [25]: 9.79 µM | TGI [26]: 2.48 µM | TGI [27]: 3.49 µM | TGI [28]: 9.24 µM | TGI [29]: 1.18 µM | TGI [30]: 6.41 µM | TGI [31]: 3.45 µM | TGI [32]: 7 µM | TGI [33]: 5.78 µM | TGI [34]: 5.03 µM | TGI [35]: 2290 nM | TGI [36]: 4.24 µM | TGI [37]: 3.19 µM | TGI [38]: 7.97 µM | TGI [39]: 7.64 µM | TGI [40]: 6.89 µM | TGI [41]: 7.51 µM | TGI [42]: 5.62 µM | TGI [43]: 7.54 µM | TGI [44]: 1.18 µM | TGI [45]: 3.61 µM | TGI [46]: 6.03 µM | TGI [47]: 1.94 µM | TGI [48]: 7.28 µM | TGI [49]: 5.76 µM | TGI [50]: 7.85 µM | TGI [51]: 9.02 µM | TGI [52]: 9.93 µM | TGI [53]: 10 µM | TGI [54]: 12.5 µM | TGI [55]: 4.57 µM | TGI [56]: 6.45 µM | TGI [57]: 5.1 µM | TGI [58]: 10 µM | TGI [59]: 3.84 µM
